Where two headings read alike, the source gives them in different places.
Experiments:
[1] = system: patients with recurrent malignant glioma; settings: single agent, cited from earlier work
clinical = settings: human, in vivo
GBM = settings: second line treatment of patients with GBM; cited from earlier work

Cn1cncc1[C@@](N)(c1ccc(Cl)cc1)c1ccc2c(c1)c(-c1cccc(Cl)c1)cc(=O)n2C [tipifarnib, Tipifarnib]
predominant DLT ([1]; patients not taking EIAEDs): myelosuppression
predominant DLT ([1]; patients on EIAEDs): rash
AUC from 0–12 hours at MTD, those receiving EIAEDs compared with those not receiving EIAEDs [1]: approximately halved
change of AUC between daily or twice daily dosing (clinical): do not seem to change significantly
AUC (clinical; 100 mg): 761.5 ± 468.8 ng·h/mL
T1/2 (clinical; 100 mg): 3.35 ± 1.29 h
AUC (clinical; 100 mg, AUC): 904 ± 377 ng·h/mL
half-life (clinical; 100 mg, T1/2): 6.57 ± 1.18 h

bevacizumab
6-months progression free survival (PFS) (GBM): 29–45%
